From ChEMBL document CHEMBL4033748, “SAR and characterization of non-substrate isoindoline urea inhibitors of nicotinamide phosphoribosyltransferase (NAMPT)” (Bioorg Med Chem Lett, 2017) come the findings set out here.

Values after ≈ are worked out from the molar mass of the structure shown. Active and inactive are the calls of the source. The rule behind the calls is not given here. Where only a bound is given, the exact number is not on record here.

The target of series [1] is Nicotinamide phosphoribosyltransferase (Homo sapiens, UniProt P43490).
Description: Inhibition of C-terminal His-tagged human recombinant NAMPT using FK866 or isoindoline urea-based Oregon green (488) probe incubated for 3 hrs by TR-FRET assay
The subject of the next series is PC-3. Nature of the series: Antiproliferative activity against human PC3 cells assessed as reduction in cell viability incubated for 5 days by Cell-titer Glo reagent based assay. The series is classed as functional.
Series [2] concerns Liver. Nature of the series: Unbound intrinsic clearance in mouse liver microsomes at 0.5 uM in presence of NADPH incubated for 5 to 30 mins by HPLC-MS/MS method. The format is ADME, microsome.
For series [3], the system named is Liver. The experiment in a line: Unbound intrinsic clearance in human liver microsomes at 0.5 uM in presence of NADPH incubated for 5 to 30 mins by HPLC-MS/MS method. The series is classed as ADME, microsome.
A further series has as its target Cytochrome P450 3A4 (Homo sapiens, UniProt P08684). Nature of the series: Inhibition of CYP3A4 (unknown origin). The series is classed as ADME.
The target in another series is Cytochrome P450 2C9 (Homo sapiens, UniProt P11712). Nature of the series: Inhibition of CYP2C9 (unknown origin). The series is classed as ADME.
In series [4] the test system is Liver. Nature of the series: Unbound intrinsic clearance in rat liver microsomes at 0.5 uM in presence of NADPH incubated for 5 to 30 mins by HPLC-MS/MS method. The series is classed as ADME, microsome.
A short description of series [5]: Half life in Sprague-Dawley rat at 1 mg/kg, iv. The series is classed as ADME, organism-based. Conditions: in vivo.
Series [6] in a line: Plasma clearance in Sprague-Dawley rat at 1 mg/kg, iv. The series is classed as ADME, organism-based.
The subject of series [7] is Rattus norvegicus. Nature of the series: Unbound intrinsic clearance in Sprague-Dawley rat at 1 mg/kg, iv. The settings on record: in vivo. The series is classed as ADME, organism-based.
Series [8] in a line: Oral bioavailability in Sprague-Dawley rat at 1 mg/kg. The series is classed as ADME, organism-based. Conditions: in vivo.
The next series relates to HCT-116. Nature of the series: Antitumor activity against human HCT116 cells xenografted in CB17 SCID mouse assessed as tumor growth inhibition at 15 mg/kg/day, po dosed daily (3 days on/4 days off per cycle for 3 cycles). The format is functional. The settings on record: HCT-116, po, 72 h, read-out: TGI. Background: Xenograft models place foreign cells or tissue in a host animal.

A short description of series [9]: Aqueous solubility of the compound. The series is classed as physicochemical. The settings on record: buffer.
Series [10] is described as follows: Half life in Sprague-Dawley rat at 5 mg/kg, iv. The series is classed as ADME, organism-based. The settings on record: in vivo.
Series [11] in a line: Plasma clearance in Sprague-Dawley rat at 5 mg/kg, iv. The format is ADME, organism-based.
The subject of series [12] is Rattus norvegicus. The experiment in a line: Unbound intrinsic clearance in Sprague-Dawley rat at 5 mg/kg, iv. The format is ADME, organism-based. The settings on record: in vivo.
A short description of series [13]: Oral bioavailability in Sprague-Dawley rat at 5 mg/kg. The format is ADME, organism-based. Conditions: in vivo.
Another series deals with NCI-H345. Conditions: Homo sapiens.
The subject of a further series is A2780. The settings on record: Homo sapiens.
In another series the test system is ES2. The settings on record: Homo sapiens.
Another series has as its system U-87 MG. The settings on record: Homo sapiens; U-87MG ATCC.
The next series has as its system H460LM. The settings on record: Homo sapiens.

Sequence of Nicotinamide phosphoribosyltransferase (P43490 whole entry): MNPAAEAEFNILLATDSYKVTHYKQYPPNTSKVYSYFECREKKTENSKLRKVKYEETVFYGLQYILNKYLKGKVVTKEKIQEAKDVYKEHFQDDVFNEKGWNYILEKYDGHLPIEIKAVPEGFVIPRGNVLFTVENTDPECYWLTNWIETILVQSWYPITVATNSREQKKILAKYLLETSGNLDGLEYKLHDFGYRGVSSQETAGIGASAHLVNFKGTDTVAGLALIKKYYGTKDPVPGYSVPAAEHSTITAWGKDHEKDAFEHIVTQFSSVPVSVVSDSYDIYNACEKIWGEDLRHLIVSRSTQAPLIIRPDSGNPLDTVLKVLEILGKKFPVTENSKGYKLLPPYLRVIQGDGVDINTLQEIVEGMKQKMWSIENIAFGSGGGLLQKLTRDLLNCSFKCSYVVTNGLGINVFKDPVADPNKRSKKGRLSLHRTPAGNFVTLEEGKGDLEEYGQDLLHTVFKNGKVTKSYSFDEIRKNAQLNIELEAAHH
Sequence of Cytochrome P450 3A4 (P08684 whole entry): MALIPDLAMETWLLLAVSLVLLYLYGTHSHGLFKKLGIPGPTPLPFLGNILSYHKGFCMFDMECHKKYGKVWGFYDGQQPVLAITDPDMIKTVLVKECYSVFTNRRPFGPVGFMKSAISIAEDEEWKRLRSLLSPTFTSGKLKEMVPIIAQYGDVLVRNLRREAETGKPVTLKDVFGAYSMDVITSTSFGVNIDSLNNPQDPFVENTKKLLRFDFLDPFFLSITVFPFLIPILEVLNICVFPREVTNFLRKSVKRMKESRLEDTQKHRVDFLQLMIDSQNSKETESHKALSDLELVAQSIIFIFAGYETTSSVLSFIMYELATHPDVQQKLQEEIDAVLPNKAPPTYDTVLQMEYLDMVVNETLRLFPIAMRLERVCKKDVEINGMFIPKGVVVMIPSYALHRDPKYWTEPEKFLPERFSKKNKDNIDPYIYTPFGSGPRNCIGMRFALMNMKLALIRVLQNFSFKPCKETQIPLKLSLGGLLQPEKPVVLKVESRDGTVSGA
Sequence of Cytochrome P450 2C9 (P11712 whole entry): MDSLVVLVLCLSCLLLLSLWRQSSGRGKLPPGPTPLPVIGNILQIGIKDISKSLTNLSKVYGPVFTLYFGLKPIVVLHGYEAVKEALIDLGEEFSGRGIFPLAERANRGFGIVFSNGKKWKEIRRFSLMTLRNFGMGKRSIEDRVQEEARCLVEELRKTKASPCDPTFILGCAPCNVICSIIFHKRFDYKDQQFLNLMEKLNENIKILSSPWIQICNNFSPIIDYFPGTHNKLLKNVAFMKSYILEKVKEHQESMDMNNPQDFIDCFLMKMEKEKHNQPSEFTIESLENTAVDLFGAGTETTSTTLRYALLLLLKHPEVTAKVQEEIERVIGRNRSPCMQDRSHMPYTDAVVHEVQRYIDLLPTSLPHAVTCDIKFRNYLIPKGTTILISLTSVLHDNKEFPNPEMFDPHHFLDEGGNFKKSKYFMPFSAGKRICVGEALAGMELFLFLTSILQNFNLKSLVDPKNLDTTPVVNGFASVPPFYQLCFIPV
Description for A2780: Antitumor activity against human A2780 cells xenografted in CB17 SCID mouse assessed as tumor growth inhibition
Description for ES2: Antitumor activity against human ES2 cells xenografted in CB17 SCID mouse assessed as tumor growth inhibition
Description for H460LM: Antitumor activity against human H460LM cells xenografted in CB17 SCID mouse assessed as tumor growth inhibition
Description for NCI-H345: Antitumor activity against human NCI-H345 cells xenografted in CB17 SCID mouse assessed as tumor growth inhibition
Description for U-87 MG: Antitumor activity against human U87MG cells xenografted in CB17 SCID mouse assessed as tumor growth inhibition

`CC(C)(O)CC(=O)N1CCC(c2ccc(NC(=O)N3Cc4ccccc4C3)cc2)CC1`: in [1], the Ki (usually the dissociation constant of the complex between target and ligand, obtained from inhibition or displacement) was found to be 5.6 nM. Moreover, the IC50 (commonly the concentration needed to halve the response being measured) in the series with PC-3 (Homo sapiens, PC-3, 120 h) amounted to 24 nM; on Cytochrome P450 3A4, 16000 nM; against Cytochrome P450 2C9 it was 8400 nM. In addition, the CL free is 300 mL/min/kg in the series on Liver [2], 58.3 mL/min/kg in the series on Liver [3], < 56.7 mL/min/kg in the series with Liver [4] and 28.3 mL/min/kg in the series on Rattus norvegicus [7]. Moreover, the half-life (usually the time in which the quantity being followed falls by half) in [5] is 4.8 h. The clearance (usually the volume of plasma or blood freed of the substance per unit of time) in series [6] is 1.83 mL/min/kg. Besides, the bioavailability (as a rule, the share of a dose that reaches the circulation, judged against a reference dose that is usually intravenous) in series [8] is 100%. Further, the inhibition in vivo at 15 mg/kg/day in the series on HCT-116 was 90%. Besides, the solubility (in general, the concentration that dissolves in the medium under given conditions) in series [9] stood at 3.3 µM (≈ 1.39 µg/mL).
`CC(C)CCC(=O)Nc1ccc(NC(=O)N2Cc3ccccc3C2)cc1` came in with a Ki in series [1] of 58 nM. Moreover, the half-inhibitory concentration (IC50) in the series on PC-3 (Homo sapiens, PC-3, 120 h) was determined as 17 nM. For the same molecule, the values for the CL free in the series with Liver [2] and with Liver [3] were 783 mL/min/kg and 60 mL/min/kg, respectively. Further, the solubility in series [9] was < 5 µM.
For the molecule `O=C(NC[C@@H]1CCOC1)c1ccc(NC(=O)N2Cc3ccccc3C2)cc1`, the half-inhibitory concentration (IC50) in the series on PC-3 (pc-3) is 56 nM; on Cytochrome P450 3A4, > 20000 nM; at Cytochrome P450 2C9, > 20000 nM. The CL free in the series with Liver [4] is < 46.7 mL/min/kg; with Rattus norvegicus [12] it was 28.3 mL/min/kg. Also, in [10], the half-life is 3 h. Further, in series [11], the clearance is 4.33 mL/min/kg. This molecule came in with a bioavailability in [13] of 59%. The inhibition in vivo at 15 mg/kg/day in the series with HCT-116 stood at 78%. In [9], the solubility was 17 µM (≈ 6.21 µg/mL). The TGI result with NCI-H345, in the series on A2780, in the series on ES2, in the series with U-87 MG and with H460LM was “Active” each time.
`Cc1ccc(NC(=O)N2Cc3ccccc3C2)cc1`: the affinity in series [1], expressed as Ki, was 2200 nM. Also, the IC50 in the series with PC-3 (pc-3) is > 10000 nM. The solubility in [9] was < 5 µM.
`CC(C)(O)CC(=O)N1CCC(c2ccc(NC(=O)N3Cc4ccc(F)cc4C3)cc2)CC1` had a Ki in series [1] of 2.5 nM. For the same molecule, the IC50 with PC-3 (Homo sapiens, PC-3, 120 h) was 3.2 nM. Besides, the CL free with Liver [2] stood at 143 mL/min/kg; with Liver [3], 95 mL/min/kg.
For `CC1(C(=O)N2CCC(c3ccc(NC(=O)N4Cc5ccccc5C4)cc3)CC2)CC1` the same measures were 4.3 nM, 6.6 nM, 283 mL/min/kg and 56.7 mL/min/kg.
Regarding `COC(=O)c1ccc(NC(=O)N2Cc3ccccc3C2)cc1`, the affinity in [1] corresponds to a Ki of 112 nM. The IC50 in the series with PC-3 (pc-3) amounted to 2300 nM. Moreover, in series [9], the solubility was < 5 µM.
In the case of `O=C(Nc1ccc(C2CCN(S(=O)(=O)C3CC3)CC2)cc1)N1Cc2ccc(F)cc2C1`, in series [1], the Ki stood at 3.9 nM. For the same molecule, the half-inhibitory concentration (IC50) with PC-3 (Homo sapiens, PC-3, 120 h) worked out at 6.5 nM. The CL free was 500 mL/min/kg with Liver [2] and 58.3 mL/min/kg with Liver [3].
In series [1], `CN(CCC(C)(C)C)C(=O)c1ccc(NC(=O)N2Cc3ccccc3C2)cc1` gave a Ki of 160 nM. For the same molecule, the IC50 with PC-3 (Homo sapiens, PC-3, 120 h) was determined as 1100 nM. Besides, the CL free was determined as 2170 mL/min/kg in the series on Liver [2] and 2000 mL/min/kg with Liver [3]. The solubility in series [9] was < 5 µM.
In turn, `CN1CCN(C(C)(C)C(=O)N2CCC(c3ccc(NC(=O)N4Cc5ccccc5C4)cc3)CC2)CC1` returned a Ki in series [1] of 1.5 nM. Further, in the series with PC-3 (Homo sapiens, PC-3, 120 h), the IC50 worked out at 2.3 nM. Besides, the values for the CL free with Liver [2] and in the series on Liver [3] were 1470 mL/min/kg and 733 mL/min/kg, respectively.
